# Assay: Solubility in pure water with pH 7 at 25° C.
# Assay type: physicochemical
# Conditions: pH 7, 25° C., compared with the coloring material
# Experimental: In order to inspect depositing quality due to the influence of pH, the solubility in pure water with pH7 at 25° C. has been compared between the compound represented by the general formula (I) or a salt thereof and the compound represented by the general formula (II) to find that the compound represented by the general formula (II) has a lower solubility than the compound represented by the general formula (I) or a salt thereof. This fact also has supported that the compound represented by the general formula (II) has a high depositing quality.
smiles,measurement,value
O=C([O-])c1ccccc1Nc1nc(O)nc(Nc2ccccc2C(=O)[O-])n1.[Na+].[Na+] [Exemplified Compound B],solubility in pure water,lower than the solubility of Exemplified Compound A

# Source: patent US20060125896A1, “Ink tank, ink jet recording method, and ink tank regeneration process” (Canon Kabushiki Kaisha, priority 2004, published 2006)
